# Laboratory results: PubChem BioAssay (NCI)
#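 Results reflect a 48-hour exposure of cells in 96-well plates to compound at five concentrations. GI50 marks 50% less growth. Definition used: TGI = concentration required for complete inhibition of growth.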
# Experiments:
# Experiment in all cases: inhibition of tumour cell growth, NCI panel, 48 h
# COLO 205 colon = system: COLO 205 colon
# DU-145 prostate = system: DU-145 prostate
# HL-60(TB) leukemia = system: HL-60(TB) leukemia
# HOP-62 NSCLC = system: HOP-62 NSCLC
# HS 578T breast = system: HS 578T breast
# IGROV1 ovarian = system: IGROV1 ovarian
# K-562 leukemia = system: K-562 leukemia
# MCF7 breast = system: MCF7 breast
# NCI-H226 lung = system: NCI-H226 lung
# OVCAR-3 ovarian = system: OVCAR-3 ovarian
# OVCAR-8 ovarian = system: OVCAR-8 ovarian
# RPMI-8226 leukemia = system: RPMI-8226 leukemia
# RXF 393 renal = system: RXF 393 renal
# SF-268 CNS = system: SF-268 CNS
# SF-295 CNS = system: SF-295 CNS
# SK-OV-3 ovarian = system: SK-OV-3 ovarian
# SW-620 colon = system: SW-620 colon
# UO-31 renal = system: UO-31 renal
# 786-0 renal = system: 786-0 renal
# A498 renal = system: A498 renal
# A549 NSCLC = system: A549 NSCLC
# ACHN renal = system: ACHN renal
# BT-549 breast = system: BT-549 breast
# CAKI-1 renal = system: CAKI-1 renal
# CCRF-CEM leukemia = system: CCRF-CEM leukemia
# EKVX NSCLC = system: EKVX NSCLC
# HCC-2998 colon = system: HCC-2998 colon
# HCT-116 colon = system: HCT-116 colon
# HCT-15 colon = system: HCT-15 colon
# HOP-92 NSCLC = system: HOP-92 NSCLC
# KM12 colon = system: KM12 colon
# LOX IMVI melanoma = system: LOX IMVI melanoma
# M14 melanoma = system: M14 melanoma
# MALME-3M melanoma = system: MALME-3M melanoma
# MDA-MB-231 breast = system: MDA-MB-231 breast
# MDA-MB-435 = system: MDA-MB-435
# MOLT-4 leukemia = system: MOLT-4 leukemia
# NCI-H23 lung = system: NCI-H23 lung
# NCI-H460 lung = system: NCI-H460 lung
# NCI-H522 lung = system: NCI-H522 lung
# NCI/ADR-RES ovarian = system: NCI/ADR-RES ovarian
# OVCAR-4 ovarian = system: OVCAR-4 ovarian
# OVCAR-5 ovarian = system: OVCAR-5 ovarian
# PC-3 prostate = system: PC-3 prostate
# SF-539 CNS = system: SF-539 CNS
# SK-MEL-2 melanoma = system: SK-MEL-2 melanoma
# SK-MEL-28 melanoma = system: SK-MEL-28 melanoma
# SK-MEL-5 melanoma = system: SK-MEL-5 melanoma
# SN12C renal = system: SN12C renal
# SNB-19 CNS = system: SNB-19 CNS
# SNB-75 CNS = system: SNB-75 CNS
# SR leukemia = system: SR leukemia
# TK-10 renal = system: TK-10 renal
# U251 CNS = system: U251 CNS
# UACC-62 melanoma = system: UACC-62 melanoma
smiles,measurement,setting,value
CC(=O)O[C@H]1CC2C(C3CCC(C(C)CCC(N)=O)[C@]31C)[C@H](OC(C)=O)C[C@@H]1CC3(CC[C@]21C)OOC1(CC[C@]2(C)C4C[C@H](OC(C)=O)[C@]5(C)C(C(C)CCC(N)=O)CCC5C4[C@H](OC(C)=O)C[C@@H]2C1)OO3 (stereo partly drawn),TGI,COLO 205 colon,2840 nM
same,TGI,DU-145 prostate,3490 nM
same,TGI,HL-60(TB) leukemia,4190 nM
same,TGI,HOP-62 NSCLC,3860 nM
same,TGI,HS 578T breast,4550 nM
same,TGI,IGROV1 ovarian,3280 nM
same,TGI,K-562 leukemia,> 100000 nM
same,TGI,MCF7 breast,4080 nM
same,TGI,NCI-H226 lung,2790 nM
same,TGI,OVCAR-3 ovarian,2850 nM
same,TGI,OVCAR-8 ovarian,3660 nM
same,TGI,RPMI-8226 leukemia,> 100000 nM
same,TGI,RXF 393 renal,3340 nM
same,TGI,SF-268 CNS,3370 nM
same,TGI,SF-295 CNS,3200 nM
same,TGI,SK-OV-3 ovarian,3950 nM
same,TGI,SW-620 colon,> 100000 nM
same,TGI,UO-31 renal,2360 nM
CC(C)N(Cc1ccc(CN(C(=O)CCl)C(C)C)cc1)C(=O)CCl,GI50,786-0 renal,351 nM
same,TGI,786-0 renal,1300 nM
same,GI50,A498 renal,1900 nM
same,TGI,A498 renal,4270 nM
same,GI50,A549 NSCLC,2570 nM
same,TGI,A549 NSCLC,7370 nM
same,GI50,ACHN renal,1880 nM
same,TGI,ACHN renal,3740 nM
same,GI50,BT-549 breast,1870 nM
same,TGI,BT-549 breast,4160 nM
same,GI50,CAKI-1 renal,1770 nM
same,TGI,CAKI-1 renal,3390 nM
same,GI50,CCRF-CEM leukemia,287 nM
same,TGI,CCRF-CEM leukemia,865 nM
same,GI50,COLO 205 colon,2160 nM
same,TGI,COLO 205 colon,4360 nM
same,GI50,DU-145 prostate,3230 nM
same,TGI,DU-145 prostate,12400 nM
same,GI50,EKVX NSCLC,2360 nM
same,TGI,EKVX NSCLC,5630 nM
same,GI50,HCC-2998 colon,2000 nM
same,TGI,HCC-2998 colon,3940 nM
same,GI50,HCT-116 colon,1650 nM
same,TGI,HCT-116 colon,5620 nM
same,GI50,HCT-15 colon,1380 nM
same,TGI,HCT-15 colon,3640 nM
same,GI50,HL-60(TB) leukemia,1950 nM
same,TGI,HL-60(TB) leukemia,4960 nM
same,GI50,HOP-62 NSCLC,856 nM
same,TGI,HOP-62 NSCLC,2370 nM
same,GI50,HOP-92 NSCLC,1830 nM
same,TGI,HOP-92 NSCLC,3560 nM
same,GI50,HS 578T breast,2750 nM
same,TGI,HS 578T breast,16800 nM
same,GI50,IGROV1 ovarian,629 nM
same,TGI,IGROV1 ovarian,2550 nM
same,GI50,K-562 leukemia,2280 nM
same,TGI,K-562 leukemia,18300 nM
same,GI50,KM12 colon,1750 nM
same,TGI,KM12 colon,3540 nM
same,GI50,LOX IMVI melanoma,290 nM
same,TGI,LOX IMVI melanoma,1050 nM
same,GI50,M14 melanoma,1860 nM
same,TGI,M14 melanoma,7120 nM
same,GI50,MALME-3M melanoma,186 nM
same,TGI,MALME-3M melanoma,453 nM
same,GI50,MCF7 breast,1700 nM
same,TGI,MCF7 breast,12100 nM
same,GI50,MDA-MB-231 breast,2100 nM
same,TGI,MDA-MB-231 breast,6420 nM
same,GI50,MDA-MB-435,1700 nM
same,TGI,MDA-MB-435,4900 nM
same,GI50,MOLT-4 leukemia,2330 nM
same,TGI,MOLT-4 leukemia,8130 nM
same,GI50,NCI-H226 lung,3250 nM
same,TGI,NCI-H226 lung,9440 nM
same,GI50,NCI-H23 lung,1100 nM
same,TGI,NCI-H23 lung,3600 nM
same,GI50,NCI-H460 lung,1980 nM
same,TGI,NCI-H460 lung,4740 nM
same,GI50,NCI-H522 lung,156 nM
same,TGI,NCI-H522 lung,342 nM
same,GI50,NCI/ADR-RES ovarian,2490 nM
same,TGI,NCI/ADR-RES ovarian,7730 nM
same,GI50,OVCAR-3 ovarian,1690 nM
same,TGI,OVCAR-3 ovarian,3220 nM
same,GI50,OVCAR-4 ovarian,1380 nM
same,TGI,OVCAR-4 ovarian,3630 nM
same,GI50,OVCAR-5 ovarian,1910 nM
same,TGI,OVCAR-5 ovarian,3970 nM
same,GI50,OVCAR-8 ovarian,2080 nM
same,TGI,OVCAR-8 ovarian,6430 nM
same,GI50,PC-3 prostate,2270 nM
same,TGI,PC-3 prostate,5480 nM
same,GI50,RPMI-8226 leukemia,2060 nM
same,TGI,RPMI-8226 leukemia,5130 nM
same,GI50,RXF 393 renal,1330 nM
same,TGI,RXF 393 renal,2850 nM
same,GI50,SF-268 CNS,1660 nM
same,TGI,SF-268 CNS,3490 nM
same,GI50,SF-295 CNS,1810 nM
same,TGI,SF-295 CNS,3880 nM
same,GI50,SF-539 CNS,1670 nM
same,TGI,SF-539 CNS,3250 nM
same,GI50,SK-MEL-2 melanoma,2360 nM
same,TGI,SK-MEL-2 melanoma,5880 nM
same,GI50,SK-MEL-28 melanoma,2360 nM
same,TGI,SK-MEL-28 melanoma,6520 nM
same,GI50,SK-MEL-5 melanoma,451 nM
same,TGI,SK-MEL-5 melanoma,1810 nM
same,GI50,SK-OV-3 ovarian,1830 nM
same,TGI,SK-OV-3 ovarian,3350 nM
same,GI50,SN12C renal,1490 nM
same,TGI,SN12C renal,3710 nM
same,GI50,SNB-19 CNS,2160 nM
same,TGI,SNB-19 CNS,5400 nM
same,GI50,SNB-75 CNS,1290 nM
same,TGI,SNB-75 CNS,2590 nM
same,GI50,SR leukemia,225 nM
same,TGI,SR leukemia,838 nM
same,GI50,SW-620 colon,1450 nM
same,TGI,SW-620 colon,4220 nM
same,GI50,TK-10 renal,2690 nM
same,TGI,TK-10 renal,6640 nM
same,GI50,U251 CNS,1770 nM
same,TGI,U251 CNS,3320 nM
same,GI50,UACC-62 melanoma,1040 nM
same,TGI,UACC-62 melanoma,2970 nM
same,GI50,UO-31 renal,1760 nM
same,TGI,UO-31 renal,3210 nM
